Here are results for five compounds from patent US3993749A, “Rapamycin and process of preparation” (Ayerst McKenna and Harrison Ltd., priority 1975, dated 1976).

One data set in a line: LD50 in mice. The following applies: mouse, in vivo.
Data set [1] in a line: irritation, intradermal injection into a rabbit's ear. The format is in vivo. As to conditions: 1% suspension (0.2 ml) in water containing […] polysorbate 80, intradermal. The protocol: (§1) A 1% suspension (0.2 ml) of rapamycin in water containing 1.5% polysorbate 80 (Tween 80), when injected intradermally into a rabbit's ear caused no irritation. Similarly, two drops of a 0.5% suspension applied to a rabbit's eye caused no irritation.

For another data set, the system named is C. stellatoidea. As to the kind of experiment: minimum inhibitory concentration of rapamycin. As to conditions: Candida albicans. The data set is classed as cell-based. An excerpt: (§2) The antifungal activity of this compound is demonstrable in standard tests used for this purpose, for example, in the tests described in "Antiseptics, Disinfectants, Fungicides and Sterilization", G. F. Reddish, Ed., 2nd ed., Lea and Febiger, Philadelphia, 1957 or by D. C. Grove and W. A. Randall in "Assay Methods of Antibiotics", Med. Encycl. Inc., New York 1955.
(§3) h. the minimum inhibitory concentration of rapamycin against various microorganism is listed below: […]

For a further data set, the system named is C. intermedia. The experiment in a line: minimum inhibitory concentration of rapamycin. The following applies: Sungouiella intermedia. The data set is classed as cell-based.
Text: as §2, §3

A further data set has as its system C. tropicalis. The experiment in a line: minimum inhibitory concentration of rapamycin. The following applies: Candida tropicalis. The format is cell-based.
Text: as §2, §3

The subject of a further data set is C. lipolytica. As to the kind of experiment: minimum inhibitory concentration of rapamycin. The format is cell-based. As to conditions: Yarrowia lipolytica.
Text: as §2, §3

The next data set relates to C. morrera. The experiment in a line: minimum inhibitory concentration of rapamycin. The format is cell-based.
Text: as §2, §3

The test system of the next data set is T. mentagrophytes. The experiment in a line: minimum inhibitory concentration of rapamycin. The data set is classed as cell-based. The following applies: Trichophyton mentagrophytes, read-out: minimum inhibitory concentration.
Text: as §2, §3

The test system of the next data set is C. pseudtropicalis. The experiment in a line: minimum inhibitory concentration of rapamycin. The data set is classed as cell-based. As to conditions: read-out: minimum inhibitory concentration.
Text: as §2, §3

Data set [2] has as its system Candida albicans (5 strains). As to the kind of experiment: minimum inhibitory concentration of rapamycin. The format is cell-based. As to conditions: against Candida albicans.
Text: as §2, §3

The subject of a further data set is C. catenulata. As to the kind of experiment: minimum inhibitory concentration of rapamycin. The data set is classed as cell-based.
Text: as §2, §3

The subject of another data set is C. parapsilosis. As to the kind of experiment: minimum inhibitory concentration of rapamycin. The format is cell-based. The following applies: Lodderomyces parapsilosis.
Text: as §2, §3

The next data set has as its system M. gypseum. The experiment in a line: minimum inhibitory concentration of rapamycin. The data set is classed as cell-based, Microsporum gypseum. As to conditions: Nannizzia gypsea.
Text: as §2, §3

For the next data set, the system named is C. albicans ATCC 11651. As to the kind of experiment: protection studies in mice infected with C. albicans. The data set is classed as in vivo. From the text:
In protection studies, mice were infected by intravenous injection of C. albicans ATCC 11651. […] At this dose 50% of the mice were protected.

Data set [3] in a line: irritation, drops applied to a rabbit's eye. The format is in vivo. As to conditions: two drops of a 0.5% suspension. The protocol:
as §1

The next data set is described as follows: solubility. The data set is classed as physicochemical.
Another data set has as its system C. albicans. The following applies: prior art; cited from earlier work.
For data set [4] the following is noted: prior art, route not given; cited from earlier work.
Another data set deals with fungi. As to conditions: prior art; cited from earlier work.
The subject of a further data set is bacteria. As to conditions: prior art; cited from earlier work.
For a further data set, the system named is Candida strains. As to conditions: prior art; cited from earlier work.
The subject of a further data set is gram positive organisms. As to conditions: prior art; cited from earlier work.
The test system of the next data set is tumor. As to conditions: prior art; cited from earlier work.

≈ marks a conversion by molar mass, not a printed value.

In general, LD50 refers to the dose expected to kill half of the subjects tested. The low end stands for greater toxicity, the high end for lower toxicity. Regarding `CO[C@H]1C[C@@H]2CC[C@@H](C)[C@@](O)(O2)C(=O)C(=O)N2CCCC[C@H]2C(=O)O[C@H]([C@H](C)C[C@@H]2CC[C@@H](O)[C@H](OC)C2)CC(=O)[C@H](C)/C=C(\C)[C@@H](O)[C@@H](OC)C(=O)[C@H](C)C[C@H](C)/C=C/C=C/C=C/1C` [Rapamycin, rapamycin], the LD50 in the data set “LD50 in mice” (ip) was 597 ± 28.1 mg/kg; in “LD50 in mice” (po) it was over 2500 mg/kg. Further, the irritation entry in data set [1] and in [3] was “no irritation” each time. Besides, the MIC against C. stellatoidea is under 0.1 mg/L; against C. intermedia, under 0.1 mg/L; with C. tropicalis, 0.1 mg/L (≈ 0.109 µM); against C. lipolytica, 2.5 mg/L (≈ 2.73 µM); against C. morrera it was under 0.1 mg/L; with T. mentagrophytes it was over 1000 mg/L. Also, the MIC in the data set on C. pseudtropicalis was over 5 mg/L; in the data set on C. catenulata, under 0.1 mg/L; against C. parapsilosis, under 0.1 mg/L; against M. gypseum, 12.5 mg/L (≈ 13.7 µM). Further, in data set [2], the inhibitory activity entry is “especially pronounced”. For the same compound, the mice survived in the data set on C. albicans ATCC 11651 (10 mg/kg orally) was 4 out of 10. The compound also showed a mice protected in the data set on C. albicans ATCC 11651 (10 mg/kg s.c. at 1, 4 and 24 hours after i.v. infection) of 50%. Besides, the protection result with C. albicans ATCC 11651 (25 mg/kg orally) and in the data set with C. albicans ATCC 11651 (25 mg/kg s.c.) was “complete protection” throughout. Moreover, the solubility result in the data set “solubility” (in ether, chloroform, acetone, methanol and dimethylformamide) was “soluble”; in the data set “solubility” (in hexane and petroleum ether) it was “very sparingly soluble”; in “solubility” (in water), “substantially insoluble”.

For Mycotrienin, the “MIC against C. albicans” value in the data set on C. albicans is 5 mg/L. The LD50 in mice in data set [4] is 15 mg/kg. Further, the antifungal activity entry in the data set with fungi is given as “low antifungal activity”.

Take Proticin: in the data set with bacteria, the antibacterial activity entry is reported as “antibacterial”. Besides, the antifungal activity entry in the data set with fungi was “without any antifungal activity”.

On to Resistaphylin, for which the antibacterial activity entry with bacteria is reported as “antibacterial”. Moreover, the antifungal activity entry in the data set with fungi is “without any antifungal activity”.

Trienine: the “activity against Candida strains” value in the data set on Candida strains is listed as “only marginal activity”. The “activity against gram positive organisms” value in the data set with gram positive organisms is reported as “marked activity”. The antitumor activity entry with tumor is “antitumor activity”.
